From the OligoGym collection
Several values for one entry are separate records, joined by “and”; a condition that tells them apart may be missing. Equal entries are not always repeated. After the bases stand the sugars from the 5' end (letter, count) and the backbone: PS all phosphorothioate, else s phosphorothioate and o phosphodiester by linkage. Methylation of C is not given here. e = 2'-O-(2-methoxyethyl) (MOE); k = constrained ethyl (cEt); d = 2'-deoxy (DNA)

Target: IRF5
Details: ASO, KARPAS-229, 0.44444 µM

Going from “ACCACTGTGTACCCCA (sugars kkddddddddddkeke, PS)” to AGCTTGGTCTTGACCT (sugars k3 d10 k3, PS), the target mRNA inhibition rises from 26% to 33%.

In the case of AGGAGTGAGACGAGCA (sugars k3 d10 k3, PS), the target mRNA inhibition was 12%.

Same assay, conditions: ASO, KARPAS-229, 1.33333 µM

Compared with “ACCACTGTGTACCCCA (sugars kkddddddddddkeke, PS)”, AGCTTGGTCTTGACCT (sugars k3 d10 k3, PS) is higher in target mRNA inhibition: 38% for the first, 41% for the second.

AGGAGTGAGACGAGCA (sugars k3 d10 k3, PS) was tested, and the target mRNA inhibition was 41%.

Same assay, conditions: ASO, KARPAS-229, 4 µM

Compared with AAACCATTCTATGCCT (sugars k3 d10 k3, PS), AAAGGGTGAGTAGGAC (sugars k3 d10 k3, PS) is higher in target mRNA inhibition: 0% for the first, 24% for the second.

Compared with AACCATTCTATGCCTT (sugars k3 d10 k3, PS), “AAGGGCACAGCGCAGG (sugars kkddddddddddkeke, PS)” is lower in target mRNA inhibition: 33% for the first, 0% for the second.

Going from “AAGGGCACAGCGCAGG (sugars kkddddddddkekekk, PS)” to “AAGGGCACAGCGCAGG (sugars kkkddddddddkdkdk, PS)”, the target mRNA inhibition rises from 0% to 12%.

Going from ACATCCATCAATGAGG (sugars k3 d10 k3, PS) to “ACATCTCCACATCAGT (sugars kkddddddddddkeke, PS)”, the target mRNA inhibition rises from 0% to 36%.

Going from “ACATCTCCACATCAGT (sugars kkddddddddkekekk, PS)” to “ACCACTGTGTACCCCA (sugars kdddddddddkekeke, PS)”, the target mRNA inhibition rises from 15% to 40%.

“ACCACTGTGTACCCCA (sugars kkkddddddddkekek, PS)” and “ACTGACACAGGCGGAT (sugars kkdddddddddkdkdk, PS)” are the same in target mRNA inhibition: 6% for the first, 6% for the second.

First: ACTGACACAGGCGGAT (sugars kkddddddddkekekk, PS)
Second: AGACGAGCAAAGGGTG (sugars k3 d10 k3, PS)
The target mRNA inhibition of the first is lower: 0% for the first, 35% for the second.

“AGATGGTGTTATCTCC (sugars kddddddddddkekek, PS)” and “AGATGGTGTTATCTCC (sugars kkdddddddddkekek, PS)” are the same in target mRNA inhibition: 0% for the first, 0% for the second.

“AGATGGTGTTATCTCC (sugars kkddddddddkekekk, PS)” and “AGATGGTGTTATCTCC (sugars kkkddddddddkekek, PS)” are the same in target mRNA inhibition: 0% for the first, 0% for the second.

Going from “AGCTTGGTCTTGACCT (sugars kekdddddddddeekk, PS)” to “AGCTTGGTCTTGACCT (sugars kkddddddddkekekk, PS)”, the target mRNA inhibition falls from 38% to 0%.

Compared with “AGCTTGGTCTTGACCT (sugars kkkddddddddkdkdk, PS)”, “AGGAAGTGAGTCTCAA (sugars kekdddddddddeekk, PS)” is higher in target mRNA inhibition: 12% for the first, 43% for the second.

Compared with “AGGAAGTGAGTCTCAA (sugars kkddddddddddkeke, PS)”, “AGGAAGTGAGTCTCAA (sugars kkdddddddddkekek, PS)” is higher in target mRNA inhibition: 39% for the first, 42% for the second.

Compared with “AGGAAGTGAGTCTCAA (sugars kkkddddddddkdkdk, PS)”, “AGGAGTGAGACGAGCA (sugars kekdddddddddeekk, PS)” is lower in target mRNA inhibition: 40% for the first, 22% for the second.

Compared with “AGGAGTGAGACGAGCA (sugars kkdddddddddkekek, PS)”, “AGGAGTGAGACGAGCA (sugars kkkdddddddddkeke, PS)” is higher in target mRNA inhibition: 36% for the first, 42% for the second.

First: AGGTTCTTGGACTCTC (sugars k2 d8 e4 k2, PS)
Second: AGGTTCTTGGACTCTC (sugars k2 d9 e3 k2, PS)
The target mRNA inhibition of the first is higher: 17% for the first, 0% for the second.

Going from “AGGTTCTTGGACTCTC (sugars kddddddddddkekek, PS)” to “AGGTTCTTGGACTCTC (sugars kkdddddddddkekek, PS)”, the target mRNA inhibition rises from 34% to 38%.

First: ATCACCACTGTGTACC (sugars k3 d9 k3 e1, PS)
Second: ATCACCACTGTGTACC (sugars kkdddddddddkekek, PS)
The target mRNA inhibition of the first is higher: 19% for the first, 0% for the second.

First: ATCACCACTGTGTACC (sugars kkddddddddkekekk, PS)
Second: ATGAGTCATGGGCTGA (sugars k3 d9 k3 e1, PS)
The target mRNA inhibition of the first is lower: 0% for the first, 20% for the second.

“ATGAGTCATGGGCTGA (sugars kddddddddddkekek, PS)” and “ATGAGTCATGGGCTGA (sugars kkddddddddddkeke, PS)” are the same in target mRNA inhibition: 0% for the first, 0% for the second.

“ATGAGTCATGGGCTGA (sugars kkdddddddddkekek, PS)” and “ATGGTGTTATCTCCGT (sugars kdddddddddkekeke, PS)” are the same in target mRNA inhibition: 0% for the first, 0% for the second.

Going from ATTCCAATTTTGCATT (sugars k3 d10 k3, PS) to “ATTTCTGCTCCAGGTT (sugars kdddddddddkekeke, PS)”, the target mRNA inhibition falls from 21% to 13%.

For “ATTTCTGCTCCAGGTT (sugars kkddddddddkekekk, PS)”, the target mRNA inhibition was 6%.

For “ACCACTGTGTACCCCA (sugars kkddddddddddkeke, PS)”, the target mRNA inhibition was 66% and 56%.
In the case of AGGAGTGAGACGAGCA (sugars k3 d10 k3, PS), the target mRNA inhibition was 56% and 58%.

Same assay, conditions: ASO, KARPAS-229, 12 µM

First: ACCACTGTGTACCCCA (sugars kkddddddddddkeke, PS)
Second: AGCTTGGTCTTGACCT (sugars k3 d10 k3, PS)
The target mRNA inhibition of the first is higher: 70% for the first, 55% for the second.

Work on AGGAGTGAGACGAGCA (sugars k3 d10 k3, PS) yielded a target mRNA inhibition of 70%.

Target: DGAT2
Details: ASO, HepG2, 0.12 µM

Going from “TGGTATCCAAAGATATAGTT (sugars e5 d10 e5, PS)” to “TGGTCAGCAGGTTGTGTGTC (sugars e3 d14 e3, PS)”, the target mRNA inhibition rises from 42% to 57%.

First: TGGTCTTGTGCTTGTCGAAG (sugars e5 d10 e5, PS)
Second: TGGTGATGGGCTTGGAGTAG (sugars e5 d10 e5, PS)
The target mRNA inhibition of the first is higher: 41% for the first, 28% for the second.

First: TGTCTTCACCAGCTGGATGG (sugars e5 d10 e5, PS)
Second: TGTGCTGCATCCATGTCATC (sugars e5 d10 e5, PS)
The target mRNA inhibition of the first is higher: 55% for the first, 36% for the second.

Compared with “TGTGTCTTCACCAGCTGGAT (sugars e5 d10 e5, PS)”, “TTATCCTTGAGGGTCTCATA (sugars e5 d10 e5, PS)” is lower in target mRNA inhibition: 55% for the first, 45% for the second.

First: TTCACCAGGGCCTCCATGTA (sugars e5 d10 e5, PS)
Second: TTCCCCAGAGCAGCTCTGAG (sugars e5 d10 e5, PS)
The target mRNA inhibition of the first is lower: 20% for the first, 27% for the second.

Going from “TTCGGACCCACTGTGACCTC (sugars e3 d14 e3, PS)” to “TTCTGGAACTTCTTCTGGAC (sugars e5 d10 e5, PS)”, the target mRNA inhibition falls from 64% to 37%.

Going from “TTCTGTGGCCTCTGTGCTGA (sugars e5 d10 e5, PS)” to “TTCTTGCCAGGCATGGAGCT (sugars e5 d10 e5, PS)”, the target mRNA inhibition rises from 25% to 54%.

Going from “TTCTTTTAAATAACCCACAG (sugars e5 d10 e5, PS)” to “TTTCGGACCCACTGTGACCT (sugars e2 d13 e5, PS)”, the target mRNA inhibition rises from 8% to 68%.

For “TTTCGGACCCACTGTGACCT (sugars e3 d14 e3, PS)”, the target mRNA inhibition was 61%.

Same assay, conditions: ASO, HepG2, 2.5 µM

First: TGTACACTTCATTCTCTCCA (sugars e5 d10 e5, PS)
Second: TGTCCTAGTGCCCCAGGGAG (sugars e5 d10 e5, PS)
The target mRNA inhibition of the first is lower: 41% for the first, 48% for the second.

Going from “TGTGCTCTGTGGGCTCCTCC (sugars e5 d10 e5, PS)” to “TTGTACACTTCATTCTCTCC (sugars e5 d10 e5, PS)”, the target mRNA inhibition falls from 66% to 37%.

In the case of “TTGTCCTGGTCCCAGTACTT (sugars e5 d10 e5, PS)”, the target mRNA inhibition was 68%.

“TTTCCACTCTTCTGACAGGT (sugars e5 d10 e5, PS)” was tested, and the target mRNA inhibition was 77% and 69%.

Same assay, conditions: ASO, HepG2, 10 µM

Going from “TGTACACTTCATTCTCTCCA (sugars e5 d10 e5, PS)” to “TGTCCTAGTGCCCCAGGGAG (sugars e5 d10 e5, PS)”, the target mRNA inhibition falls from 87% to 79%.

First: TGTGCTCTGTGGGCTCCTCC (sugars e5 d10 e5, PS)
Second: TTGTACACTTCATTCTCTCC (sugars e5 d10 e5, PS)
The target mRNA inhibition of the first is higher: 85% for the first, 84% for the second.

Work on “TTGTCCTGGTCCCAGTACTT (sugars e5 d10 e5, PS)” yielded a target mRNA inhibition of 88%.

With “TTCCACTCTTCTGACAGGTC (sugars e5 d10 e5, PS)” the target mRNA inhibition was 89% and 84%.
With “TTGGTCTTTTTGGCTGCCCT (sugars e5 d10 e5, PS)” the target mRNA inhibition was 85% and 82%.
For “TTTCCACTCTTCTGACAGGT (sugars e5 d10 e5, PS)”, the target mRNA inhibition was 93% and 92%.
